Experimental data from PubChem BioAssay (NCI).
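The compound was tested at five concentrations on cells cultured in 96-well plates, with a 48-hour exposure period. At the TGI there is no net growth.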

Tests used:
Test in all cases: NCI-60 cell line screen, 48 h
[1] = tested on: 786-0 renal
[2] = tested on: A498 renal
[3] = tested on: A549 NSCLC
[4] = tested on: ACHN renal
[5] = tested on: BT-549 breast
[6] = tested on: CAKI-1 renal
[7] = tested on: CCRF-CEM leukemia
[8] = tested on: COLO 205 colon
[9] = tested on: DU-145 prostate
[10] = tested on: EKVX NSCLC
[11] = tested on: HCC-2998 colon
[12] = tested on: HCT-116 colon
[13] = tested on: HCT-15 colon
[14] = tested on: HL-60(TB) leukemia
[15] = tested on: HOP-62 NSCLC
[16] = tested on: HS 578T breast
[17] = tested on: HT29 colon
[18] = tested on: IGROV1 ovarian
[19] = tested on: K-562 leukemia
[20] = tested on: KM12 colon
[21] = tested on: LOX IMVI melanoma
[22] = tested on: M14 melanoma
[23] = tested on: MALME-3M melanoma
[24] = tested on: MCF7 breast
[25] = tested on: MDA-MB-231 breast
[26] = tested on: MDA-MB-435
[27] = tested on: MDA-N
[28] = tested on: MOLT-4 leukemia
[29] = tested on: NCI-H226 lung
[30] = tested on: NCI-H23 lung
[31] = tested on: NCI-H460 lung
[32] = tested on: NCI-H522 lung
[33] = tested on: NCI/ADR-RES ovarian
[34] = tested on: OVCAR-3 ovarian
[35] = tested on: OVCAR-4 ovarian
[36] = tested on: OVCAR-5 ovarian
[37] = tested on: OVCAR-8 ovarian
[38] = tested on: PC-3 prostate
[39] = tested on: RPMI-8226 leukemia
[40] = tested on: RXF 393 renal
[41] = tested on: SF-268 CNS
[42] = tested on: SF-295 CNS
[43] = tested on: SF-539 CNS
[44] = tested on: SK-MEL-2 melanoma
[45] = tested on: SK-MEL-28 melanoma
[46] = tested on: SK-OV-3 ovarian
[47] = tested on: SN12C renal
[48] = tested on: SNB-19 CNS
[49] = tested on: SNB-75 CNS
[50] = tested on: SW-620 colon
[51] = tested on: T-47D breast
[52] = tested on: TK-10 renal
[53] = tested on: U251 CNS
[54] = tested on: UACC-257 melanoma
[55] = tested on: UACC-62 melanoma
[56] = tested on: HOP-92 NSCLC
[57] = tested on: SK-MEL-5 melanoma
[58] = tested on: UO-31 renal
[59] = tested on: SR leukemia

## CCO/C(O)=C(/C(=N)N1CCOCC1)C(=O)Nc1cccc(Cl)c1
[1]
  TGI: > 100 µM
[2]
  TGI: > 100 µM
[3]
  TGI: > 100 µM
[4]
  TGI: > 100 µM
[5]
  TGI: > 100 µM
[6]
  TGI: > 100 µM
[7]
  TGI: > 100 µM
[8]
  TGI: > 100 µM
[9]
  TGI: > 100 µM
[10]
  TGI: > 100 µM
[11]
  TGI: > 100 µM
[12]
  TGI: > 100 µM
[13]
  TGI: > 100 µM
[14]
  TGI: > 100 µM
[15]
  TGI: > 100 µM
[16]
  TGI: > 100 µM
[17]
  TGI: > 100 µM
[18]
  TGI: > 100 µM
[19]
  TGI: > 100 µM
[20]
  TGI: > 100 µM
[21]
  TGI: > 100 µM
[22]
  TGI: > 100 µM
[23]
  TGI: > 100 µM
[24]
  TGI: > 100 µM
[25]
  TGI: > 100 µM
[26]
  TGI: > 100 µM
[27]
  TGI: > 100 µM
[28]
  TGI: > 100 µM
[29]
  TGI: > 100 µM
[30]
  TGI: > 100 µM
[31]
  TGI: > 100 µM
[32]
  TGI: > 100 µM
[33]
  TGI: > 100 µM
[34]
  TGI: > 100 µM
[35]
  TGI: > 100 µM
[36]
  TGI: > 100 µM
[37]
  TGI: > 100 µM
[38]
  TGI: > 100 µM
[39]
  TGI: > 100 µM
[40]
  TGI: > 100 µM
[41]
  TGI: > 100 µM
[42]
  TGI: > 100 µM
[43]
  TGI: > 100 µM
[44]
  TGI: > 100 µM
[45]
  TGI: > 100 µM
[46]
  TGI: > 100 µM
[47]
  TGI: > 100 µM
[48]
  TGI: > 100 µM
[49]
  TGI: > 100 µM
[50]
  TGI: > 100 µM
[51]
  TGI: > 100 µM
[52]
  TGI: > 100 µM
[53]
  TGI: > 100 µM
[54]
  TGI: > 100 µM
[55]
  TGI: > 100 µM

## CC(=O)O[C@H](C[C@@H](C)[C@H]1C(=O)[C@H](O)[C@@]2(C)C3CC[C@H]4C(C)(C)[C@@H](OC5OCC(O)C(O)C5O)CC[C@@]45C[C@@]35CC[C@]12C)[C@@H]1OC1(C)C (stereo partly drawn)
[1]
  TGI: 30.2 µM
[2]
  TGI: 29.3 µM
[3]
  TGI: > 100 µM
[4]
  TGI: 29.4 µM
[5]
  TGI: 51.4 µM
[6]
  TGI: 33.3 µM
[7]
  TGI: > 100 µM
[8]
  TGI: 61.3 µM
[9]
  TGI: 37.7 µM
[10]
  TGI: 44.3 µM
[11]
  TGI: 29.8 µM
[12]
  TGI: 38 µM
[13]
  TGI: 55.4 µM
[14]
  TGI: 22.6 µM
[15]
  TGI: 31.1 µM
[56]
  TGI: 30.6 µM
[16]
  TGI: > 100 µM
[17]
  TGI: > 100 µM
[18]
  TGI: 29.7 µM
[19]
  TGI: 15.3 µM
[20]
  TGI: 53.8 µM
[21]
  TGI: > 100 µM
[22]
  TGI: 94.5 µM
[23]
  TGI: 32.4 µM
[24]
  TGI: 34.8 µM
[25]
  TGI: 34.7 µM
[26]
  TGI: 36.2 µM
[27]
  TGI: 40.2 µM
[29]
  TGI: 33.2 µM
[30]
  TGI: 55.4 µM
[31]
  TGI: 30.6 µM
[32]
  TGI: 33.8 µM
[33]
  TGI: > 100 µM
[34]
  TGI: 7.18 µM
[35]
  TGI: 64.5 µM
[36]
  TGI: 32 µM
[37]
  TGI: 41.3 µM
[38]
  TGI: 30.4 µM
[39]
  TGI: 26.4 µM
[40]
  TGI: 34.1 µM
[41]
  TGI: 46.7 µM
[42]
  TGI: 33.6 µM
[43]
  TGI: 29.8 µM
[44]
  TGI: 29.5 µM
[45]
  TGI: 44.7 µM
[57]
  TGI: 29.7 µM
[46]
  TGI: 26.4 µM
[47]
  TGI: 35.7 µM
[48]
  TGI: 65.4 µM
[49]
  TGI: 26.1 µM
[50]
  TGI: > 100 µM
[51]
  TGI: 63.6 µM
[52]
  TGI: 29.8 µM
[53]
  TGI: 29.9 µM
[54]
  TGI: 34.8 µM
[55]
  TGI: 27 µM
[58]
  TGI: 54.7 µM

## CCOP(=O)(OCC)/C(C#N)=C/c1nccn1C
[1]
  TGI: > 100 µM
[2]
  TGI: > 100 µM
[3]
  TGI: > 100 µM
[4]
  TGI: > 100 µM
[5]
  TGI: > 100 µM
[7]
  TGI: > 100 µM
[8]
  TGI: > 100 µM
[9]
  TGI: > 100 µM
[10]
  TGI: > 100 µM
[11]
  TGI: > 100 µM
[12]
  TGI: > 100 µM
[13]
  TGI: > 100 µM
[14]
  TGI: > 100 µM
[15]
  TGI: > 100 µM
[56]
  TGI: > 100 µM
[16]
  TGI: > 100 µM
[17]
  TGI: > 100 µM
[19]
  TGI: > 100 µM
[20]
  TGI: > 100 µM
[21]
  TGI: > 100 µM
[22]
  TGI: > 100 µM
[24]
  TGI: > 100 µM
[25]
  TGI: > 100 µM
[26]
  TGI: > 100 µM
[27]
  TGI: > 100 µM
[28]
  TGI: > 100 µM
[29]
  TGI: > 100 µM
[30]
  TGI: > 100 µM
[31]
  TGI: > 100 µM
[32]
  TGI: > 100 µM
[33]
  TGI: > 100 µM
[34]
  TGI: > 100 µM
[36]
  TGI: > 100 µM
[37]
  TGI: > 100 µM
[38]
  TGI: > 100 µM
[39]
  TGI: > 100 µM
[41]
  TGI: > 100 µM
[42]
  TGI: > 100 µM
[43]
  TGI: > 100 µM
[44]
  TGI: > 100 µM
[45]
  TGI: > 100 µM
[47]
  TGI: > 100 µM
[48]
  TGI: > 100 µM
[49]
  TGI: > 100 µM
[59]
  TGI: > 100 µM
[50]
  TGI: > 100 µM
[51]
  TGI: > 100 µM
[52]
  TGI: > 100 µM
[53]
  TGI: > 100 µM
[54]
  TGI: > 100 µM
[58]
  TGI: > 100 µM
